The text below walks through data of patent US20030176314A1, “Compounds for the treatment of pain” (priority 2001, published 2003).

One test addresses T1, rat NPFF2 receptor (Rattus norvegicus, UniProt Q9EQD2).
T1 construct: The full-length NPFF2 was amplified from rat spinal cord cDNA; expressed in transfected cells; host or cells: not given
Description: Functional assay (agonist potency, intrinsic activity) at cloned rat NPFF2 receptor. Format: cell-based. To be noted: Table 7, intrinsic activity.

Test [1] concerns the target T2, human α1A adrenergic receptor (Homo sapiens, UniProt P35348).
T2 construct: host or cells: LM(tk-) cells, line L-α1C
T2 sequence (P35348 1-466): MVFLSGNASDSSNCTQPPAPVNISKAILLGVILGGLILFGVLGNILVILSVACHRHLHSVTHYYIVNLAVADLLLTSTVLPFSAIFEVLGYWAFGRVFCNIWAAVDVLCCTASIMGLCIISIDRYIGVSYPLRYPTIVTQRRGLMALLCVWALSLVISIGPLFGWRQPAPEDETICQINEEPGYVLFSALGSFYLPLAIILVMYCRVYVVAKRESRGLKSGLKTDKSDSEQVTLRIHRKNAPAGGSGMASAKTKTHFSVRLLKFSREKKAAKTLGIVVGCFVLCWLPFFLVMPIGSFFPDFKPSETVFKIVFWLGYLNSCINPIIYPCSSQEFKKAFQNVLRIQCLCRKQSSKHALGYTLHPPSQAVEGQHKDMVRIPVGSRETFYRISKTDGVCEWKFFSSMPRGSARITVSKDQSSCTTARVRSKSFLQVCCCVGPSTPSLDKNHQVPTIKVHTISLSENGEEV
Description: Binding at human α1A adrenergic receptor. Particulars: Table 8; read-out: hα1A Ki. The source says:
(§1) α1 Human Adrenergic Receptors: To determine the binding of compounds to human α1 receptors, LM(tk−) cell lines stably transfected with the genes encoding the α1a, α1b, and α1d receptors were used. The nomenclature describing the α1 receptors was changed recently, such that the receptor formerly designated α1a is now designated α1d, and the receptor formerly designated α1c is now designated α1a. The cell lines expressing these receptors were deposited with the ATCC before the nomenclature change and reflect the subtype designations formerly assigned to these receptors. Thus, the cell line expressing the receptor described herein as the α1a receptor was deposited with the ATCC on Sep. […] The cell line expressing receptor described herein as the α1d receptor was deposited with the ATCC on Sep. […] The cell line expressing the α1b receptor is designated L-α1B, and was deposited on Sep.
(§2) The binding affinity (Ki) of these compounds were tested according to the protocols described herein at the following receptors; human α1A, α1B, α1D, α2A, α2B, and α2C adrenergic receptors; human Y1, Y2, Y4, and Y5 receptors; and N-Methyl-D-aspartic acid (NMDA) receptor channels. The binding interactions of these compounds were additionally tested at the norepinephrine (NE) transporter (NE uptake) and serotonin (5-hydroxytryptamine (5HT)) transporter (5HT uptake) according to protocols described herein

Test [2] addresses T3, human α1B adrenergic receptor (Homo sapiens, UniProt P35368).
T3 construct: host or cells: LM(tk-) cells, line L-α1B
T3 sequence (P35368 1-520): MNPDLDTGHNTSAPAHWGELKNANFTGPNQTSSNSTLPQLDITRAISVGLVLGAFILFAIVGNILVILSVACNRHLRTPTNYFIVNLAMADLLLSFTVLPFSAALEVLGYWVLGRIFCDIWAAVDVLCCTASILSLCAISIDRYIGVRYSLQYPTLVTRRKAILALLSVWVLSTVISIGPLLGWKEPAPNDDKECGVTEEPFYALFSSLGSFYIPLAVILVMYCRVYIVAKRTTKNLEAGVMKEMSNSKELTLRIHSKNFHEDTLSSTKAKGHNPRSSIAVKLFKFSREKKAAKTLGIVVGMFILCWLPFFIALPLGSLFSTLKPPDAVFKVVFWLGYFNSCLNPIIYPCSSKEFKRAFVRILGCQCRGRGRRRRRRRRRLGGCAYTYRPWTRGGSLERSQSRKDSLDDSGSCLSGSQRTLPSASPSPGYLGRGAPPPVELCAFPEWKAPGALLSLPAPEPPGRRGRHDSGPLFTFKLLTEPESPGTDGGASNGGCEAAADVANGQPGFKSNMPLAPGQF
Briefly: Binding at human α1B adrenergic receptor. Particulars: Table 8; read-out: hα1B Ki.
Source text: as §1, §2

Test [3] deals with T4, human α1D adrenergic receptor (Homo sapiens, UniProt P25100).
T4 construct: host or cells: LM(tk-) cells, line L-α1A
T4 sequence (P25100 1-572): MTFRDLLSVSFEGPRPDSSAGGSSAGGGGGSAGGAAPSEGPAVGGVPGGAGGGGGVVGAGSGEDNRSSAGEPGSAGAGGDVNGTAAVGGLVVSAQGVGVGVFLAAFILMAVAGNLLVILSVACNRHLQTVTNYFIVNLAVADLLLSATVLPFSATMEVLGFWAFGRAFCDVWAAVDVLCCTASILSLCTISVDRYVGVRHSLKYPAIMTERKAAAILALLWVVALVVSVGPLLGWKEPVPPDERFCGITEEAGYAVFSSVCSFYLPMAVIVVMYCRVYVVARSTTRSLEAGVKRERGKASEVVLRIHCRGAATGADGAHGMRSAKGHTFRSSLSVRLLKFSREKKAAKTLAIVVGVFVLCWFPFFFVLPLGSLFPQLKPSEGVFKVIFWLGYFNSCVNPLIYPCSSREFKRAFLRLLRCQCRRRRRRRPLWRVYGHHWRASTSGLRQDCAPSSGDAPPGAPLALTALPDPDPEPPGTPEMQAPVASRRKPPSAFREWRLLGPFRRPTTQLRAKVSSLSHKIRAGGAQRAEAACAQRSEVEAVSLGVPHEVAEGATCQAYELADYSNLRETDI
Briefly: Binding at human α1D adrenergic receptor. Particulars: Table 8; read-out: hα1D Ki.
Source text: as §1, §2

T1 sequence (Q9EQD2 whole entry): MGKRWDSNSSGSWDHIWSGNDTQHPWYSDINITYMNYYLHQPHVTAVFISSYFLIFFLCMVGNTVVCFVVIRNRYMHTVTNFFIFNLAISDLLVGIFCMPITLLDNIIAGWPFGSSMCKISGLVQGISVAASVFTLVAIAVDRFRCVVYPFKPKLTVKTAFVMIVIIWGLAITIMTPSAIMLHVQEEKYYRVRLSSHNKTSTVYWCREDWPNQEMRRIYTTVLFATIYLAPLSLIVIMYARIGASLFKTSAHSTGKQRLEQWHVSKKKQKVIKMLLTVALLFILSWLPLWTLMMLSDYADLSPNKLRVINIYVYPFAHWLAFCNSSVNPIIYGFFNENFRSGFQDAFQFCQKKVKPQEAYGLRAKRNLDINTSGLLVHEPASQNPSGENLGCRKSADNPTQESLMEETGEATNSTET

Usually Ki stands for the dissociation constant of the complex between target and ligand, obtained from inhibition or displacement. `Cc1nc(NC(=N)N)nc2ccccc12` [Compound 1001A, N-(4-methyl-2-quinazolinyl)guanidine]: the “rNPFF2 IA” value at rat NPFF2 receptor is 16% NPFF. The Ki in test [1] came out at 5.03 µM; in test [2], 9.86 µM; in test [3], 12.9 µM.
